Assay: Retrospective questionnaire study of patient-reported cardiac events (heart attack, coronary artery bypass or angioplasty)
Format: in vivo, patients
Settings: for Events/Year: cardiac events per subject year, patients on drug for at least one year; for Cardiac Events: number of cardiac events (history of heart attack, coronary artery bypass or angioplasty) in patients on drug for at least one year; for heart attacks compared with controls (in words): treated patients vs controls; for observed difference between the proportions vs Total Control: treated group vs Total Control (Groups 1 + 4)
Description: A retrospective study was performed which compared the rates of patient reported heart attack in several groups: 1—control group of males entering the urology office for any routine complaint. 2—a group of prostate cancer patients treated with Leuprolide acetate, a LHRH inhibitor. 3—a group of prostate cancer patients treated with Goserelin acetate (Zoladex), a LHRH inhibitor. 4—a group of prostate cancer patients not treated with hormonal manipulation (neither Leuprolide or Goserelin). 5—a group of patients treated with Finasteride (another form of hormonal manipulation). 6—all patients on LHRH inhibitors (group 2+group 3). The patients on either leuprolide acetate or goserelin acetate were treated with the recommended doses indicated for the treatment of prostatic carcinoma, at either one or three month intervals depending on the preparation used. Leuprolide was dosed at 7.5 mg monthly (single intramuscular injection) or at 22.5 mg at 3 month intervals (single intramuscular injection). Goserelin was dosed at 3.6 mg monthly (subcutaneous injection) or at a dose of 10.8 mg at 3 month intervals (subcutaneous injection). The various groups of office patients were given a questionnaire. In groups 2, 3 and 5 only those on drug for at least one year were considered. Cardiac event is defined as either the history of a heart attack or occurrence of coronary artery bypass or angioplasty. In control groups only events occurring in the 3 years prior to the questionnaire are charted.

Compound | observed difference between the proportions vs Group 1 (Control) (Group 5 vs Group 1 (control, no cancer)) | Events/Year | Cardiac Events | heart attacks compared with controls (in words) | observed difference between the proportions vs Total Control
CC(C)(C)NC(=O)[C@H]1CC[C@H]2[C@@H]3CC[C@H]4NC(=O)C=C[C@]4(C)[C@H]3CC[C@]12C [Finasteride] | 0.0186 | .0165 | 4 | fewer heart attacks than control | 
CC(C)C[C@H](NC(=O)[C@@H](COC(C)(C)C)NC(=O)[C@H](Cc1ccc(O)cc1)NC(=O)[C@H](CO)NC(=O)[C@H](Cc1c[nH]c2ccccc12)NC(=O)[C@H](Cc1cnc[nH]1)NC(=O)[C@@H]1CCC(=O)N1)C(=O)N[C@@H](CCCNC(=N)N)C(=O)N1CCC[C@H]1C(=O)NNC(N)=O [goserelin acetate, pyro-Glu-His-Trp-Ser-Tyr-D-Ser(Bu)-Leu-Arg-Pro-Azgly-NH2 acetate] |  | .0161 | 1 | fewer heart attacks than controls | 0.0177
CC(=O)O.CCNC(=O)[C@@H]1CCCN1C(=O)[C@H](CCCNC(=N)N)NC(=O)[C@H](CC(C)C)NC(=O)[C@@H](CC(C)C)NC(=O)[C@H](Cc1ccc(O)cc1)NC(=O)[C@H](CO)NC(=O)[C@H](Cc1c[nH]c2ccccc12)NC(=O)[C@H](Cc1c[nH]cn1)NC(=O)[C@@H]1CCC(=O)N1 [leuprolide acetate, 5-oxo-L-prolyl-L-histidyl-L-tryptophyl-L-seryl-L-tyrosyl-D-leucyl-L-leucyl-L-arginyl-N-ethyl-L-prolinamide acetate salt] |  | .00847 | 1 | fewer heart attacks than controls | 0.0253
